In patent publication US20070087988A1, “Hematopoietic progenitor kinase 1 for modulation of an immune response” (New York University, priority 2005, published 2007):
“Also recorded” adds a separate entry of the source.

Tested on: HPK1
Assay: HPK1 immune complex in vitro kinase (IVK) assay, endogenous HPK1 from treated Jurkat cells
Assay type: cell-based, human
Settings: Lck (JCaM1), ZAP-70 (p116), Lat (ANJ-3), SLP-76 (J14) deficient lines, 10 pM PGE2

Q: How did the “HPK1 kinase activity upon PGE2 stimulation in signaling-mutant Jurkat lines” value turn out when `CCCCC[C@H](O)/C=C/[C@H]1[C@H](O)CC(=O)[C@@H]1C/C=C\CCCC(=O)O` [PGE2, prostaglandin E2] was run?
A: Its value is “did not interfere with the ability of HPK1 to respond; also recorded: all Jurkat cell lines could activate HPK1 kinase activity”.
